Measurements: paper PMC9820646, “Identification and Pharmacological Characterization of Two Serotonin Type 7 Receptor Isoforms from Mythimna separata” (International Journal of Molecular Sciences, 2022)
Counter-ions that a name gives are not always drawn. Like-named read-outs stand apart in the source and are kept apart here.

Tests used:
[1] = system: Msep5-HT7L receptor; assay: cAMP assay, agonist activation of Msep5-HT7L in stably transfected HEK293 cells; assay type: cell-based, Mythimna separata; set-up: Emax: dose or concentration left out as unconfirmed; details: ratio of EC50 values
Description: (§1) HEK-293 cells were cultured in D-MEM (Gibco BRL, Gaithersburg, MD, USA) supplemented with 10% FBS (Gibco BRL, Gaithersburg, MD, USA) at 37 °C and 5% CO2. Four microgram recombinant plasmids with 10 μL of lipofectamine 2000 (Invitrogen, Carlsbad, CA, USA) were introduced into exponentially growing HEK 293 cells. The 0.8 mg/mL antibiotic G418 (Sigma, St. Louis, MO, USA) was added to the medium to select for cells that were stably expressed the Msep5-HT7 receptors. After fourteen days of G418 selection, three G418-resistant colonies were trypsinized in cloning cylinders and transferred to 12-well plastic plates for expansion.
(§2) Intracellular cAMP concentrations were measured as previously described. Briefly, when cells were cultured for 2 days to the concentration of 1 × 10^6 cells/mL, culture media were removed and the cells were washed two times with cold PBS (pH 7.4), then the cells were preincubated in 450 μL of Dulbecco’s phosphate-buffered solution (DPBS) containing 100 μM phosphodiesterase inhibitor 3-isobutyl-1-methylxanthine (IBMX) for 20 min at room temperature. After the preincubation, 50 μL of DPBS, containing various concentrations of reagents, was added into the stable transfected cells for incubation for 30 min at 37 °C. The cells were washed three times with cold PBS (pH 7.4) and then lysed in 250 μL of cold cell lysis buffer by re-freezing. The cell debris was removed by centrifugation at 600× g for 10 min at 4 °C. The amount of intracellular cAMP extracted from harvested supernatant was determined using an ELISA reagent (R&D Systems, Minneapolis, MN, USA). Each measurement was performed in duplicate, and three independent assays were carried out for each reagent and concentration tested.

[2] = target: T1, Msep5-HT7L receptor (Mythimna separata, UniProt A0AAD7YHG5); assay: as above; assay type: cell-based; set-up: Emax: dose or concentration left out as unconfirmed; details: for effect on intracellular cAMP levels: 10 μM, HEK293 cells expressing Msep5-HT7L; for Emax: HEK293, read-out: activation compared with maximum cAMP stimulation by same concentration of 5-HT
Description: as §1, §2

[3] = target: T2, Msep5-HT7S receptor (Mythimna separata, UniProt A0AAD7YHG5, DEL320-414); assay: cell-based; assay type: cell-based; set-up: Emax: dose or concentration left out as unconfirmed; details: for Emax: HEK293, read-out: activation compared with maximum cAMP stimulation by 5-HT; for fold higher agonist potency against Msep5-HT7S than Msep5-HT7L: ratio of EC50 values
Description: as §1, §2

[4] = system: 5-HT7 receptor; details: 5-HT7 receptor from T. castaneum; ref [36]; cited from earlier work
[5] = system: 5-HT7 receptor; details: 5-HT7 receptor from T. castaneum vs the two Msep5-HT7 isoforms
[6] = target: T2, Msep5-HT7S receptor; assay: cAMP assay, antagonist block of 5-HT-induced response in HEK293 cells expressing Msep5-HT7S; assay type: cell-based; details: for inhibition at 40 µM: HEK293, read-out: decrease of 5-HT induced response
Description: as §1, §2

[7] = system: 5-HT7 receptor; assay: literature pharmacology of C. vicina 5-HT7 receptor; details: 5-HT7 receptor from C. vicina vs the two Msep5-HT7 isoforms
[8] = system: Msep5-HT7L receptor; assay: cAMP assay, antagonist block of 5-HT-induced response in HEK293 cells expressing Msep5-HT7L; assay type: cell-based; details: for decrease of 5-HT induced response: 40 μM antagonist (8-fold) with 5 μM 5-HT, range stated for all antagonists and both isoforms; for antagonist potency or efficacy, Msep5-HT7L compared with Msep5-HT7S: inhibition of 5-HT-induced cAMP production, based on 95% fiducial limits
Description: as §1, §2

[9] = target: T1, Msep5-HT7L receptor; assay: as above; assay type: cell-based; details: against 5 μM 5-HT
Description: as §1, §2

[10] = target: 5-HT7 receptor; details: 5-HT7 receptor from C. vicina; ref [28],[36],[46]; cited from earlier work
[11] = system: larvae of Mythimna separata; set-up: method as in PMID 20000410; details: ref [22]; cited from earlier work
[12] = target: 5-HT1 receptor; set-up: method as in PMID 23741451, PMID 16945110; details: 5-HT1 receptor from T. castaneum; ref [17],[27]; cited from earlier work
[13] = system: 5-HT7 receptor; details: 5-HT7 receptor from A. mellifera; ref [17],[27]; cited from earlier work
[14] = EC50, 5-HT7L, cAMP production, HEK-293 cells
[15] = logEC50 (Mean ± SEM), 5-HT7L, cAMP production, HEK-293 cells, given as negative log value
[16] = 10 μM, HEK293 cells expressing Msep5-HT7S
[17] = EC50, 5-HT7S, cAMP production, HEK-293 cells
[18] = logEC50 (Mean ± SEM), 5-HT7S, cAMP production, HEK-293 cells, given as negative log value
[19] = IC50, 5-HT7S, against 5 μM 5-HT, HEK-293 cells
[20] = logIC50 (Mean ± SEM), 5-HT7S, against 5 μM 5-HT, given as negative log value
[21] = logIC50 (Mean ± SEM), 5-HT7L, given as negative log value

T1 sequence (A0AAD7YHG5 entry or part of it): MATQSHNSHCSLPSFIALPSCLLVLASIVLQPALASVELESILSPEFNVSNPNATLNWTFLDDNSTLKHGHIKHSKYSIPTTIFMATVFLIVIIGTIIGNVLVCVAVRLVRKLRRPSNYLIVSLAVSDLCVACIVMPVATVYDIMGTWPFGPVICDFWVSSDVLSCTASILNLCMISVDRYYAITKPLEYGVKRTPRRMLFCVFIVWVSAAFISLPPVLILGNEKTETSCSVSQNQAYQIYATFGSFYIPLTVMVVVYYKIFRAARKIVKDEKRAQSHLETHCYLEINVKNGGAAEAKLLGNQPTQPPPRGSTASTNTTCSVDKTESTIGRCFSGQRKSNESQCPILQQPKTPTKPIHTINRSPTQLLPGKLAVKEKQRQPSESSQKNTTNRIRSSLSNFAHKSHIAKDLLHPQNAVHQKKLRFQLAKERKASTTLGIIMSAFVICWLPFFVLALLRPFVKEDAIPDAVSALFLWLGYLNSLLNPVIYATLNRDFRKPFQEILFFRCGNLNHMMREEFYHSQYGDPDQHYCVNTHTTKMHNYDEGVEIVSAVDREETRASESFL
T2 sequence (A0AAD7YHG5 entry or part of it DEL320-414): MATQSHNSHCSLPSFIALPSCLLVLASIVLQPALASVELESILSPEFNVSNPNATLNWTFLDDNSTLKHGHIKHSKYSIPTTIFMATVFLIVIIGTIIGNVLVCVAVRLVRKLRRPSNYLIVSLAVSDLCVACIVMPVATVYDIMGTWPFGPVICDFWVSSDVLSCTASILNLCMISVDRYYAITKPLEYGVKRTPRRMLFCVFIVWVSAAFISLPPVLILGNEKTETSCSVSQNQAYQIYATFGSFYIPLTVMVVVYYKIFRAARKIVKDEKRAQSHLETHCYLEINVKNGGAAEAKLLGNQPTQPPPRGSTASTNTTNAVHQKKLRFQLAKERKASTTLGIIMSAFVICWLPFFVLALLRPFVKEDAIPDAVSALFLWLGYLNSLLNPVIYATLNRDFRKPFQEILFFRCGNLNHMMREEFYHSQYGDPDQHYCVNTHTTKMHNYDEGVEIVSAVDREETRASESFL

Structure (SMILES)	effect on intracellular cAMP levels [2]	effect on intracellular cAMP levels [3, 16]	inhibition at 40 µM [6] [%]	IC50 [6, 19] [µM]	IC50 [6, 20] [µM]	decrease of 5-HT induced response [8]	antagonist potency or efficacy, Msep5-HT7L compared with Msep5-HT7S [8]	IC50 ([9]; IC50, 5-HT7L, HEK-293 cells) [µM]	IC50 [9, 21] [µM]	also measured
CCCN(CCC)C1CCc2cccc(O)c2C1 (racemic) [8-OH-DPAT, (±)-8-hydroxy-2-(dipropylamino) tetralin hydrobromide]	activated	only αm-5-HT significantly increased cAMP levels								fold higher agonist potency against Msep5-HT7L than Msep5-HT7S [1]: 2.4 fold; EC50 [2, 14]: 10.1 µM; Emax [2]: < 30%; EC50 [2, 15]: 10 µM; EC50 [3, 17]: 24.8 µM; Emax [3]: < 30%; EC50 [3, 18]: 24.5 µM; efficacy fold lower than 5-HT [4]: about 2 fold; potency fold lower than 5-HT [4]: more than 190 fold
NCC(O)c1ccc(O)cc1 (racemic) [octopamine, (±)-octopamine hydrochloride]	only 5-HT significantly increased cAMP levels	only 5-HT significantly increased cAMP levels								
NCCc1c[nH]c2ccc(O)cc12 [5-HT, serotonin hydrochloride]	significantly increased cAMP levels	significantly increased cAMP levels								
COc1ccc2[nH]cc(CCN)c2c1 [5-MT, 5-methoxytryptamine]	activated	only αm-5-HT significantly increased cAMP levels								EC50 [2, 14]: 20.9 µM; Emax [2]: ~69%; EC50 [2, 15]: 20.9 µM; EC50 [3, 17]: 19.4 µM; Emax [3]: ~35%; EC50 [3, 18]: 19.5 µM; fold higher agonist potency against Msep5-HT7S than Msep5-HT7L [3]: roughly equivalent; efficacy fold lower than 5-HT [4]: about 2 fold; potency fold lower than 5-HT [4]: more than 190 fold
O=C(c1ccc(F)cc1)C1CCN(CCn2c(=O)[nH]c3ccccc3c2=O)CC1 [Ketanserin]			33 to 60	84.9	85.1	33–60%	higher antagonistic activity	46.9	46.8	fold higher inhibitory potency than against Msep5-HT7L and Msep5-HT7S [5]: 20- to 50 fold; fold higher inhibitory potency than against Msep5-HT7L and Msep5-HT7S [7]: 20- to 50 fold; IC50 [10]: 1.5 µM; IC50 [4]: 1.95 µM
CSc1ccc2c(c1)C(N1CCN(C)CC1)Cc1ccccc1S2 (centres unmarked) [Methiothepin, methiothepin mesylate]			33 to 60	62.9	63.1	33–60%	no significant differences	87.2	87.1	
Nc1ccc(CCN2CCN(c3cccc(C(F)(F)F)c3)CC2)cc1 [PAPP, 1-[(4-aminophenyl)ethyl]-4-[3-(trifluoromethyl)phenyl] piperazine]										effect on larvae [11]: inhibit the growth or kill the larvae
Cc1cccc(S(=O)(=O)N(C)[C@H](C)CCN2CCC(C)CC2)c1 [SB-258719]			33 to 60	64	64.6	33–60%	no significant differences	55.3	55	
CC1CCN(CC[C@H]2CCCN2S(=O)(=O)c2cccc(O)c2)CC1 [SB-269970, (R)-3-(2-(2-(4-methylpiperidin-1-yl)ethyl)pyrrolidine-1-sulfonyl) phenol]			33 to 60	67.8	67.6	33–60%	no significant differences	70.4	70.8	IC50 [12]: 205 µM; antagonistic effect [13]: poor antagonistic effect
COc1ccccc1N1CCN(CCN(C(=O)C2CCCCC2)c2ccccn2)CC1 [WAY-100635]						33–60%	higher antagonistic activity			IC50 ([6]; 5-HT7S, against 5 μM 5-HT, HEK-293 cells, read-out: IC50): 70.3 µM; logIC50 (Mean ± SEM) ([6]; 5-HT7S, against 5 μM 5-HT, given as negative log value): −4.15 ± 0.02; IC50 ([9]; 5-HT7L, HEK-293 cells, read-out: IC50): 36.1 µM; logIC50 (Mean ± SEM) ([9]; 5-HT7L, given as negative log value): −4.44 ± 0.04; IC50 [4]: 76.8 µM
NCCc1ccc(O)c(O)c1 [dopamine, dopamine hydrochloride]	only 5-HT significantly increased cAMP levels									effect on intracellular cAMP levels [3]: only 5-HT significantly increased cAMP levels
NCCc1ccc(O)cc1 [tyramine, tyramine hydrochloride]	only 5-HT significantly increased cAMP levels	only 5-HT significantly increased cAMP levels								
CC(N)Cc1c[nH]c2ccc(O)cc12.O=C(O)/C=C\C(=O)O (stereo not drawn) [αm-5-HT, α-methylserotonin maleate]	activated	significantly increased cAMP levels								logEC50 (Mean ± SEM) ([2]; 5-HT7L, cAMP production, HEK-293 cells, given as negative log value): −4.86 ± 0.04; EC50 ([2]; 5-HT7L, cAMP production, HEK-293 cells, read-out: EC50): 13.9 µM; activation compared with maximum cAMP stimulation by same concentration of 5-HT ([2]; highest concentration 1 mM, Msep5-HT7L): about 69%; activation compared with maximum cAMP stimulation by 5-HT [3]: about 35%; logEC50 (Mean ± SEM) ([3]; 5-HT7S, cAMP production, HEK-293 cells, given as negative log value): −5.23 ± 0.29; EC50 ([3]; 5-HT7S, cAMP production, HEK-293 cells, read-out: EC50): 5.9 µM; fold higher agonist potency against Msep5-HT7S than Msep5-HT7L [3]: 2.3 fold; efficacy fold lower than 5-HT [4]: about 2 fold; potency fold lower than 5-HT [4]: more than 190 fold
